Experiments:
waterhemp = experiment: Test C pre-/postemergence herbicide test; format: in vivo, Amaranthus rudis; conditions: Preemergence
In short: (§1)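 Greenhouse plants scored visually against untreated controls 13–15 days after treatment, 0 = no effect, 100 = complete control. Test chemicals in a non-phytotoxic solvent with surfactant were applied either to soil (loam/sand) at planting or to foliage of 1- to 4-leaf plants, 2–18 cm tall.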

oilseed rape = experiment: Test C pre-/postemergence herbicide test; format: in vivo, Brassica napus; conditions: Preemergence
In short: as §1

lambsquarters = experiment: Test C pre-/postemergence herbicide test; format: in vivo, Chenopodium album; conditions: Preemergence
In short: as §1

johnsongrass = experiment: Test C pre-/postemergence herbicide test; format: in vivo, Sorghum halepense; conditions: Preemergence
In short: as §1

corn = experiment: Test C pre-/postemergence herbicide test; format: in vivo, Zea mays; conditions: Preemergence
In short: as §1

pigweed [1] = experiment: Test C pre-/postemergence herbicide test; format: in vivo, Amaranthus retroflexus; conditions: Preemergence
In short: as §1

pigweed [2] = experiment: Test A pre-/postemergence herbicide test; format: in vivo, Amaranthus retroflexus
In short: (§2)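 Visual 0–100 ratings (100 = complete control) made about 10 days after treatment, greenhouse-held plants compared with untreated controls. Treatments: postemergence sprays on one- to two-leaf plants (2–10 cm tall) and preemergence directed soil sprays after planting in loam–sand, chemicals formulated in non-phytotoxic solvent containing surfactant.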

foxtail, giant = experiment: Test C pre-/postemergence herbicide test; format: in vivo, Setaria faberii; conditions: Preemergence
In short: as §1

velvetleaf = experiment: Test C pre-/postemergence herbicide test; format: in vivo, Abutilon theophrasti; conditions: Preemergence
In short: as §1

nutsedge, yellow = experiment: Test C pre-/postemergence herbicide test; format: in vivo, Cyperus esculentus; conditions: Preemergence
In short: as §1

galium = experiment: Test C pre-/postemergence herbicide test; format: in vivo, Galium aparine; conditions: Preemergence
In short: as §1

wheat = experiment: Test A pre-/postemergence herbicide test; format: in vivo, Triticum aestivum
In short: as §2

[3] = 31 g ai/ha, scale 0 to 100, 0 is no effect and 100 is complete control
[4] = 62 g ai/ha, scale 0 to 100 (0 no effect, 100 complete control)
[5] = 125 g ai/ha, scale 0 to 100 (0 no effect, 100 complete control)
[6] = Postemergence, 500 g ai/ha, 0 to 100 scale (0 no effect, 100 complete control)
[7] = Preemergence, 125 g ai/ha, 0 to 100 scale where 0 is no effect and 100 is complete control
[8] = preemergence, 500 g ai/ha, 0 to 100 scale, 0 is no effect and 100 is complete control

SMILES: O=C1NCC(c2ccc(C(F)(F)F)nc2)C1C(=O)Nc1cccc(F)c1F (racemic) [Compound 263]
- Waterhemp plant response rating (waterhemp; [3]): 75
- Waterhemp plant response rating (waterhemp; [4]): 80
- Plant response rating, Waterhemp (waterhemp; [5]): 90
- Plant response rating (scale of 0 to 100), Waterhemp (waterhemp; 250 g ai/ha): 100
- Oilseed Rape plant response rating (oilseed rape; [3]): 40
- Oilseed Rape plant response rating (oilseed rape; [4]): 60
- Plant response rating, Oilseed Rape (oilseed rape; [5]): 60
- Plant response rating (scale of 0 to 100), Oilseed Rape (oilseed rape; 250 g ai/ha): 90
- Lambsquarters plant response rating (lambsquarters; [3]): 50
- Lambsquarters plant response rating (lambsquarters; [4]): 100
- Plant response rating, Lambsquarters (lambsquarters; [5]): 70
- Plant response rating (scale of 0 to 100), Lambsquarters (lambsquarters; 250 g ai/ha): 80
- Johnsongrass plant response rating (johnsongrass; [3]): 5
- Johnsongrass plant response rating (johnsongrass; [4]): 0
- Plant response rating, Johnsongrass (johnsongrass; [5]): 0
- Plant response rating (scale of 0 to 100), Johnsongrass (johnsongrass; 250 g ai/ha): 0
- Corn plant response rating (corn; [3]): 0
- Corn plant response rating (corn; [4]): 0
- Plant response rating, Corn (corn; [5]): 0
- Plant response rating (scale of 0 to 100), Corn (corn; 250 g ai/ha): 10
- Pigweed plant response rating (pigweed [1]; [3]): 70
- Pigweed plant response rating (pigweed [1]; [4]): 70
- Plant response rating, Pigweed (pigweed [1]; [5]): 98
- Plant response rating (scale of 0 to 100), Pigweed (pigweed [1]; 250 g ai/ha): 95
- Plant response rating, Pigweed (pigweed [2]; [6]): 70
- Plant response rating, Pigweed (pigweed [2]; [7]): 60
- Plant response rating, Pigweed (pigweed [2]; [8]): 100
- Foxtail, Giant plant response rating (foxtail, giant; [3]): 65
- Foxtail, Giant plant response rating (foxtail, giant; [4]): 95
- Plant response rating, Foxtail, Giant (foxtail, giant; [5]): 98
- Plant response rating (scale of 0 to 100), Foxtail, Giant (foxtail, giant; 250 g ai/ha): 98
- Velvetleaf plant response rating (velvetleaf; [3]): 5
- Velvetleaf plant response rating (velvetleaf; [4]): 5
- Plant response rating, Velvetleaf (velvetleaf; [5]): 20
- Plant response rating (scale of 0 to 100), Velvetleaf (velvetleaf; 250 g ai/ha): 5
- Nutsedge, Yellow plant response rating (nutsedge, yellow; [3]): 0
- Nutsedge, Yellow plant response rating (nutsedge, yellow; [4]): 0
- Plant response rating, Nutsedge, Yellow (nutsedge, yellow; [5]): 100
- Plant response rating (scale of 0 to 100), Nutsedge, Yellow (nutsedge, yellow; 250 g ai/ha): 0
- Galium plant response rating (galium; [3]): 70
- Galium plant response rating (galium; [4]): 85
- Plant response rating, Galium (galium; [5]): 85
- Plant response rating (scale of 0 to 100), Galium (galium; 250 g ai/ha): 90
- Plant response rating, Wheat (wheat; [6]): 60
- Plant response rating, Wheat (wheat; [7]): 0
- Plant response rating, Wheat (wheat; [8]): 60

Source: patent US10294202B2, “Pyrrolidinones as herbicides” (FMC Corporation, priority 2013, dated 2019)
